Reference: patent US7651661B2, “Medical devices with broad spectrum antimicrobial activity” (Board of Regents, the University of Texas System, priority 2001, dated 2010)

System: PS4205 (Pseudomonas aeruginosa)
Experiment: Zones of inhibition of impregnated devices, modified Kirby-Bauer technique
Assay type: cell-based
Protocol: Potassium tert-butoxide in THF, 7.35 ml of 1M solution, was added to a solution of CHX diacetate, 1.533 g; 2.45 mmol in 35 ml THF. The resulting heterogeneous solution was stirred for 20 minutes, then added to a solution GV, 1.0 g; 2.45 mmol, in 30 ml THF (GV used as an example of Triarylmethane Dye). The mixture was stirred at ambient conditions for 1 hour, then placed under the hood overnight to evaporate the solvent. The resulting residue was dissolved in 30 ml DCM (or MeOH). When applicable, the base (such as neutral form of chlorhexidine) is added to a stirring solution of dye (such as GV) in DCM and the resulting mixture is stirred for at least 1 h. With anionic dyes, dissolution is achieved with the addition of at least one equivalent of a quaternary amine (such as tetraethylammonium) prior to addition of the base. One-centimeter device segments were immersed in the DCM solution for the appropriate period, generally PVC and PU for 10 minutes; Silicone (Si) and Silk Suture for 2 hours. The devices were removed from the solution, and traces of solution were removed from the lumen when applicable. The impregnated devices were placed under the hood to dry for at least 4 hours, preferably over night, then washed with distilled water until the washings were colorless or very faint, and finally placed under an aseptic hood to dry under ambient conditions for at least 4 hours, preferably overnight.
The antimicrobial activity of impregnated catheters was evaluated in duplicate by a modified Kirby-Bauer technique. BBL Mueller Hinton II agar plates (obtained from Fisher Scientific) were inoculated with 0.5 McFarland of the appropriate microorganism (hospital isolates from the MD Anderson Cancer Center). Then 10 mm segments of impregnated devices were embedded in the inoculated plates and placed in an incubator at about 37° C. for at least 18 hours. Zones of inhibition were measured perpendicular to the long axis of the device. Bioactivity against yeast constituted of two zones; a large outer zone of partial growth inhibition, and an inner smaller zone of complete inhibition. […]

[1] = PVC and silicone (Si) devices impregnated with the reagent alone

Structure (SMILES)	activity against Pseudomonas aeruginosa [1]	activity against Pseudomonas aeruginosa (after impregnating the surfaces of various polymers, including polyvinylchloride)
[H]/N=C(\N/C(=N/[H])NCCCCCCNC(=N)NC(=N)Nc1ccc(Cl)cc1)Nc1ccc(Cl)cc1 [CHX, chlorhexidine]	no activity	
CN(C)c1ccc(C(=C2C=CC(=[N+](C)C)C=C2)c2ccc(N(C)C)cc2)cc1 [GV, Gentian violet]	no activity	no activity
